{"source": "patent US8367313B2", "about": "“Method of determining sperm capacitation” (Cornell University, priority 2003, dated 2013)", "key": {"murine sperm": {"system": "murine sperm", "test": "Protein tyrosine phosphorylation / capacitation of sperm", "assay_type": "cell-based, mouse"}, "[1]": {"system": "GM1 localization in murine sperm", "assay_type": "cell-based, mouse"}, "[2]": {"system": "sterols in sperm plasma membrane", "details": "exposure of sperm to sterol acceptor; cited from earlier work"}, "[3]": {"details": "incubation with the stimulus alone"}, "[4]": {"details": "Fixative A: 0.004% paraformaldehyde, mouse sperm"}, "[5]": {"details": "Fixative B: 1.25% paraformaldehyde, 2.5% glutaraldehyde, 100 mM sodium cacodylate, 0.5 mM CaCl2"}, "[6]": {"details": "Fixative C: 4% paraformaldehyde, 0.1% glutaraldehyde, 1 mM CaCl2"}}, "note": "“Also recorded” adds a separate entry of the source. Read-outs that look alike come from different tables or passages of the source."}
{"compound": "[Ca+2]", "note": "[Ca^++]", "values": [{"measurement": "ability to cause tyrosine phosphorylation or capacitation", "setting": "murine sperm; [3]", "result": "not sufficient"}]}
{"compound": "O=C([O-])O.[Na+]", "note": "[NaHCO3]", "values": [{"measurement": "GM1 staining localization after exposure to stimulus", "setting": "[1]", "result": "staining was observed in the apical acrosome and post-acrosomal region"}, {"measurement": "sperm with Pattern D (diffuse)", "setting": "[1]", "result": 3.2, "unit": "%"}, {"measurement": "ability to cause tyrosine phosphorylation or capacitation", "setting": "murine sperm", "result": "not sufficient"}]}
{"compound": "CC(=O)[C@H]1CC[C@H]2[C@@H]3CCC4=CC(=O)CC[C@]4(C)[C@H]3CC[C@]12C", "note": "[progesterone]", "values": [{"measurement": "GM1 staining localization after induction of acrosomal exocytosis", "setting": "[1]; after capacitating incubation (bicarbonate and 2-OHCD), then progesterone 10 μg/ml for 10 minutes", "result": "a signal over the apical acrosome alone; also recorded: concentrated in the region of the apical acrosome"}]}
{"compound": "(2-hydroxypropyl)-β-cyclodextrin [2-OHCD]", "values": [{"measurement": "effect on filipin-sterol complexes (FSC)", "setting": "[2]", "result": "loss of most FSC from the plasma membrane overlying the acrosome"}, {"measurement": "shift in CTb labeling pattern (FIG. 3/FIG. 4 patterns A, B, C)", "setting": "[1]; 45 minute incubation, 10 mM HCO3− or 3 mM 2-OHCD, 0.004% paraformaldehyde", "result": "shifts to pattern “C.”"}, {"measurement": "sperm with Pattern A (acrosomal)", "setting": "[1]; [4]", "result": "Ns"}, {"measurement": "sperm with Pattern AA/PA (apical acrosome and post-acrosomal)", "setting": "[1]; [4]", "result": 28.8, "unit": "%"}, {"measurement": "sperm with Pattern D (diffuse)", "setting": "[1]; [4]", "result": 40.4, "unit": "%"}, {"measurement": "sperm with Pattern PA (post-acrosomal)", "setting": "[1]; [4]", "result": 37.9, "unit": "%"}, {"measurement": "sperm with Pattern D (diffuse)", "setting": "[1]; Fixative A: 0.004% paraformaldehyde, mouse sperm, listed as cyclodextrin", "result": "approximately 40%"}, {"measurement": "sperm with Pattern A (acrosomal)", "setting": "[1]; [5]", "result": 41.8, "unit": "%"}, {"measurement": "sperm with Pattern AA/PA (apical acrosome and post-acrosomal)", "setting": "[1]; [5]", "result": 0, "unit": "%"}, {"measurement": "sperm with Pattern D (diffuse)", "setting": "[1]; [5]", "result": 0, "unit": "%"}, {"measurement": "sperm with Pattern PA (post-acrosomal)", "setting": "[1]; [5]", "result": 58.2, "unit": "%"}, {"measurement": "sperm with Pattern A (acrosomal)", "setting": "[1]; [6]", "result": 80.5, "unit": "%"}, {"measurement": "sperm with Pattern AA/PA (apical acrosome and post-acrosomal)", "setting": "[1]; [6]", "result": 0.2, "unit": "%"}, {"measurement": "sperm with Pattern D (diffuse)", "setting": "[1]; [6]", "result": 0, "unit": "%"}, {"measurement": "sperm with Pattern PA (post-acrosomal)", "setting": "[1]; [6]", "result": 19.4, "unit": "%"}, {"measurement": "GM1 staining localization after exposure to stimulus", "setting": "[1]; sperm fixed with 0.004% paraformaldehyde", "result": "a signal in the plasma membrane overlying the acrosome as well as in the post-acrosomal region"}, {"measurement": "ability to cause tyrosine phosphorylation or capacitation", "setting": "murine sperm; [3]", "result": "not sufficient"}]}
{"compound": "bovine serum albumin [BSA]", "values": [{"measurement": "effect on filipin-sterol complexes (FSC)", "setting": "[2]", "result": "loss of most FSC from the plasma membrane overlying the acrosome"}]}
